# Reference: US20100041089A1, “IMPROVED METHOD FOR DETECTING CHEMICAL […]” (priority 2006, published 2010)
# Test system: yeast genes (expressed mRNA)
# Experiment: DNA chip measurement of expressed mRNA of yeast genes after culture with a toxic chemical substance
# Format: cell-based, Saccharomyces cerevisiae S288C
# Details: for level of expressed mRNA in the presence of chemical substance / level in the absence of chemical substance: cultured two hours with the chemical substance; for The level of expressed mRNA in the presence of chemical substance/The level of expressed mRNA in the absence of chemical substance: cultured two hours with substance
# Procedure, shortened: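 Each expression value is the mRNA level in chemical-treated yeast divided by that in untreated yeast, from Cy3/Cy5 fluorescence on a whole-genome chip. Log-phase S288C cells in YPD at 25° C had received a sublethal, growth-inhibiting dose for two hours. Intensity denotes control expression relative to the all-gene mean.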
smiles,measurement,setting,value
"[Cl][Pb][Cl] [(4), PbCl2]",level of expressed mRNA in the presence of chemical substance / level in the absence of chemical substance,yeast gene YDR133C,2.0
same,level of expressed mRNA in the presence of chemical substance / level in the absence of chemical substance,yeast gene YDR250C,3.0
same,level of expressed mRNA in the presence of chemical substance / level in the absence of chemical substance,yeast gene YDR278C,1.0
same,level of expressed mRNA in the presence of chemical substance / level in the absence of chemical substance,yeast gene YDR281C,2.1
same,The level of expressed mRNA in the presence of chemical substance/The level of expressed mRNA in the absence of chemical substance,yeast gene YDR330W,0.8
same,level of expressed mRNA in the presence of chemical substance / level in the absence of chemical substance,yeast gene YDR366C,0.9
same,The level of expressed mRNA in the presence of chemical substance/The level of expressed mRNA in the absence of chemical substance,yeast gene YDR411C,1.2
same,The level of expressed mRNA in the presence of chemical substance/The level of expressed mRNA in the absence of chemical substance,yeast gene YDR511W,2.3
same,The level of expressed mRNA in the presence of chemical substance/The level of expressed mRNA in the absence of chemical substance,yeast gene YDR545W,0.7
same,The level of expressed mRNA in the presence of chemical substance/The level of expressed mRNA in the absence of chemical substance,yeast gene YEL001C,0.7
same,The level of expressed mRNA in the presence of chemical substance/The level of expressed mRNA in the absence of chemical substance,yeast gene YER004W,1.4
same,The level of expressed mRNA in the presence of chemical substance/The level of expressed mRNA in the absence of chemical substance,yeast gene YER035W,1.9
same,The level of expressed mRNA in the presence of chemical substance/The level of expressed mRNA in the absence of chemical substance,yeast gene YER079W,2.0
same,The level of expressed mRNA in the presence of chemical substance/The level of expressed mRNA in the absence of chemical substance,yeast gene YER106W,1.2
same,The level of expressed mRNA in the presence of chemical substance/The level of expressed mRNA in the absence of chemical substance,yeast gene YER158C,3.1
same,The level of expressed mRNA in the presence of chemical substance/The level of expressed mRNA in the absence of chemical substance,yeast gene YER163C,1.6
same,The level of expressed mRNA in the presence of chemical substance/The level of expressed mRNA in the absence of chemical substance,yeast gene YER175C,2.2
same,The level of expressed mRNA in the presence of chemical substance/The level of expressed mRNA in the absence of chemical substance,yeast gene YFL006W,1.0
same,The level of expressed mRNA in the presence of chemical substance/The level of expressed mRNA in the absence of chemical substance,yeast gene YFL010C,1.0
same,The level of expressed mRNA in the presence of chemical substance/The level of expressed mRNA in the absence of chemical substance,yeast gene YFL024C,0.7
same,The level of expressed mRNA in the presence of chemical substance/The level of expressed mRNA in the absence of chemical substance,yeast gene YFL032W,0.8
same,level of expressed mRNA in the presence of chemical substance / level in the absence of chemical substance,yeast gene YFR026C,0.8
same,The level of expressed mRNA in the presence of chemical substance/The level of expressed mRNA in the absence of chemical substance,yeast gene YGL037C,2.1
same,The level of expressed mRNA in the presence of chemical substance/The level of expressed mRNA in the absence of chemical substance,yeast gene YGL047W,2.3
same,The level of expressed mRNA in the presence of chemical substance/The level of expressed mRNA in the absence of chemical substance,yeast gene YGL053W,2.5
same,level of expressed mRNA in the presence of chemical substance / level in the absence of chemical substance,yeast gene YGL088W,1.1
same,The level of expressed mRNA in the presence of chemical substance/The level of expressed mRNA in the absence of chemical substance,yeast gene YGL121C,4.2
same,The level of expressed mRNA in the presence of chemical substance/The level of expressed mRNA in the absence of chemical substance,yeast gene YGL199C,1.0
same,level of expressed mRNA in the presence of chemical substance / level in the absence of chemical substance,yeast gene YGR038W,0.8
same,The level of expressed mRNA in the presence of chemical substance/The level of expressed mRNA in the absence of chemical substance,yeast gene YGR101W,1.1
same,The level of expressed mRNA in the presence of chemical substance/The level of expressed mRNA in the absence of chemical substance,yeast gene YGR110W,5.9
same,The level of expressed mRNA in the presence of chemical substance/The level of expressed mRNA in the absence of chemical substance,yeast gene YGR130C,1.6
same,level of expressed mRNA in the presence of chemical substance / level in the absence of chemical substance,yeast gene YGR139W,0.7
same,The level of expressed mRNA in the presence of chemical substance/The level of expressed mRNA in the absence of chemical substance,yeast gene YGR154C,0.5
same,The level of expressed mRNA in the presence of chemical substance/The level of expressed mRNA in the absence of chemical substance,yeast gene YGR221C,1.4
same,level of expressed mRNA in the presence of chemical substance / level in the absence of chemical substance,yeast gene YGR243W,5.0
same,level of expressed mRNA in the presence of chemical substance / level in the absence of chemical substance,yeast gene YGR293C,0.0
same,level of expressed mRNA in the presence of chemical substance / level in the absence of chemical substance,yeast gene YHL006C,0.6
same,level of expressed mRNA in the presence of chemical substance / level in the absence of chemical substance,yeast gene YHR095W,2.1
same,level of expressed mRNA in the presence of chemical substance / level in the absence of chemical substance,yeast gene YHR105W,6.3
same,The level of expressed mRNA in the presence of chemical substance/The level of expressed mRNA in the absence of chemical substance,yeast gene YHR138C,2.8
same,level of expressed mRNA in the presence of chemical substance / level in the absence of chemical substance,yeast gene YHR181W,1.4
same,The level of expressed mRNA in the presence of chemical substance/The level of expressed mRNA in the absence of chemical substance,yeast gene YHR199C,2.0
same,The level of expressed mRNA in the presence of chemical substance/The level of expressed mRNA in the absence of chemical substance,yeast gene YIL023C,1.8
same,The level of expressed mRNA in the presence of chemical substance/The level of expressed mRNA in the absence of chemical substance,yeast gene YIL041W,1.3
same,The level of expressed mRNA in the presence of chemical substance/The level of expressed mRNA in the absence of chemical substance,yeast gene YIL087C,1.6
same,level of expressed mRNA in the presence of chemical substance / level in the absence of chemical substance,yeast gene YIL127C,1.2
same,level of expressed mRNA in the presence of chemical substance / level in the absence of chemical substance,yeast gene YJL017W,1.1
same,level of expressed mRNA in the presence of chemical substance / level in the absence of chemical substance,yeast gene YJL037W,2.4
same,The level of expressed mRNA in the presence of chemical substance/The level of expressed mRNA in the absence of chemical substance,yeast gene YJL057C,1.7
same,The level of expressed mRNA in the presence of chemical substance/The level of expressed mRNA in the absence of chemical substance,yeast gene YJL066C,2.5
same,The level of expressed mRNA in the presence of chemical substance/The level of expressed mRNA in the absence of chemical substance,yeast gene YJL082W,1.1
